In patent US20210292330A1, “PYRROLIDINE-FUSED HETEROCYCLES” (Erasca, Inc., priority 2020, published 2021):

Target: T1, KRAS 4B G12C protein (Homo sapiens, UniProt P01116, G12C)
T1 construct: This protein contained 188 amino acids in total, including an N-terminal 6-Histidine tag; made in house; host or cells: E. coli BL21
Assay: In vitro covalent adduct formation (CAF) assay by LC-MS
Assay type: binding
Settings: compound 10 μM, protein 5 μM, 22° C., percentage of protein bound by the compound
Protocol: In vitro covalent adduct formation assay: Covalent adduct formation (CAF) reactions between Cys12 of the KRAS 4B G12C protein and some of the compounds of Table 1 were measured in vitro using liquid chromatography-mass spectrometry (LC-MS).
Recombinant Human KRAS 4B protein containing the G12C mutation was used in compound screening experiments. This protein contained 188 amino acids in total, including an N-terminal 6-Histidine tag, followed by a Tobacco Etch Virus (TEV) tag, followed by residues 1-169 of the native KRAS 4B sequence. The exact mass of the protein was 21,310 Da as determined by mass spectrometry. The full amino acid sequence is shown below:
The recombinant protein was expressed in E. coli BL21 cells and purified using affinity chromatography via a Ni-NTA column. […] Pure KRAS 4B G12C protein was diluted to a concentration of 5 μM in Tris Buffered Saline, pH 7.4. The compounds were dissolved in DMSO and added to the diluted protein to make a 10 μM concentration. The total DMSO concentration in the reaction was 4%. The reaction was mixed by pipetting and incubated at 22° C. for one hour. Aliquots of the reaction were taken over time and diluted 2:1 in 0.1% formic acid. The intact mass of the protein samples was measured by LC-MS using a QExactive+ mass spectrometer (Thermo Scientific). An amount of 500 ng total protein was injected onto a C8 reverse phase column, eluted with a seven-minute gradient of 30%-90% acetonitrile/0.1% formic acid, and analyzed for intact mass by the mass spectrometer. Adducts identified were confirmed to be within 1 Dalton of the expected mass, and the relative ratios of free:adduct protein were used to quantify the percentage of protein bound by the compound. CAF reactions were run in duplicate, with a typical variability of ±5%.

SMILES	CAF (10 minutes/60 minutes) at 10 micromolar: 10 minutes	CAF (10 minutes/60 minutes) at 10 micromolar: 60 minutes
C=CC(=O)N1C[C@H](C)N(c2nc(OC[C@@H]3CCCN3C)nc3c2CN(Cc2cc(O)ccc2C)C3)C[C@H]1C [1-18]	21%	65%
C=CC(=O)N1CCN(c2nc(OC[C@@H]3CCCN3C)nc3c2CN(Cc2cc(F)ccc2C)C3)[C@@H](C)C1 [1-20]	0%	6%
C=CC(=O)N1C[C@H](C)N(c2nc(OC[C@@H]3CCCN3C)nc3c2CN(Cc2c(C)ccc(O)c2C)C3)C[C@H]1C [1-21]	20%	63%
C=CC(=O)N1C[C@H](C)N(c2nc(OC[C@@H]3CCCN3C)nc3c2CN(Cc2c(C)ccc4[nH]ncc24)C3)C[C@H]1C [1-22]	1%	15%
C=CC(=O)N1CCN(c2nc(OC[C@@H]3CCCN3C)nc3c2CN(C(=O)c2cc(O)ccc2C)C3)[C@@H](C)C1 [1-23, 1-((S)-4-(6-(5-hydroxy-2-methylbenzoyl)-2-(((S)-1-methylpyrrolidin-2-yl)methoxy)-6,7-dihydro-5H-pyrrolo[3,4-d]pyrimidin-4-yl)-3-methylpiperazin-1-yl)prop-2-en-1-one]	9%	35%
C=CC(=O)N1CCN(c2nc(OC[C@@H]3CCCN3C)nc3c2CN(C(=O)c2cccc(C(F)F)c2)C3)[C@@H](C)C1 [1-24]	0%/ 0%	0%/ 0%
C=CC(=O)N1CCN(c2nc(OC[C@@H]3CCCN3C)nc3c2CN(Cc2cc(F)ccc2Cl)C3)C[C@@H]1CC#N [1-25]	78%	93%
C=CC(=O)N1CCN(c2nc(OC[C@@H]3CCCN3C)nc3c2CN(Cc2cc(O)ccc2Cl)C3)C[C@@H]1CC#N [1-26, 2-((S)-1-acryloyl-4-(6-(2-chloro-5-hydroxybenzyl)-2-(((S)-1-methylpyrrolidin-2-yl)methoxy)-6,7-dihydro-5H-pyrrolo[3,4-d]pyrimidin-4-yl)piperazin-2-yl)acetonitrile]	74%/ 74%	74%/ 74%
C=CC(=O)N1CCN(c2nc(OC[C@@H]3CCCN3C)nc3c2CN(Cc2cc(F)ccc2F)C3)C[C@@H]1CC#N [1-27]	68%	97%
C=CC(=O)N1CCN(c2nc(OC[C@@H]3CCCN3C)nc3c2CN(Cc2cc(Cl)ccc2Cl)C3)C[C@@H]1CC#N [1-28]	94%	98%
C=CC(=O)N1CCN(c2nc(OC[C@@H]3CCCN3C)nc3c2CN(Cc2c(C)cccc2C)C3)C[C@@H]1CC#N [1-29]	98%	99%
C=CC(=O)N1CCN(c2nc(OC[C@@H]3CCCN3C)nc3c2CN(Cc2cc(Cl)ccc2C)C3)[C@@H](C)C1 [1-30]	0%	7%
C=CC(=O)N1CCN(c2nc(OC[C@@H]3CCCN3C)nc3c2CN(c2cccc4cccc(C)c24)C3)[C@@H](C)C1 [1-31]	0%	6%
C=CC(=O)N1C[C@H](C)N(c2nc(OC[C@@H]3CCCN3C)nc3c2CN(Cc2cc(O)ccc2F)C3)C[C@H]1C [1-32]	7%	41%
C=CC(=O)N1CCN(c2nc(OC[C@@H]3CCCN3C)nc3c2CN(Cc2cc(Cl)ccc2F)C3)[C@@H](C)C1 [1-33]	0%	5%
C=CC(=O)N1CCN(c2nc(OC[C@@H]3CCCN3C)nc3c2CN(Cc2cc(F)ccc2Cl)C3)[C@@H](C)C1 [1-34]	0%	14%
C=CC(=O)N1CCN(c2nc(OC[C@@H]3CCCN3C)nc3c2CN(Cc2cccc(F)c2)C3)C[C@@H]1CC#N [1-35]	56%	91%
C=CC(=O)N1CCN(c2nc(OC[C@@H]3CCCN3C)nc3c2CN(Cc2c(F)cccc2OC)C3)C[C@@H]1CC#N [1-36]	91%	97%
C=CC(=O)N1CCN(c2nnc(OC)c3c2CN(Cc2cc(O)ccc2C)C3)[C@@H](C)C1 [1-37]	0%/ 0%	0%/ 0%

SMILES	CAF (10 minutes/60 minutes) at 10 micromolar: 10 minutes	CAF (10 minutes/60 minutes) at 10 micromolar: 60 minutes
C=CC(=O)N1CCN(c2nc(OC[C@@H]3CCCN3C)nc3c2CN(Cc2c(Cl)cccc2OC)C3)C[C@@H]1CC#N [1-38]	97%/ 97%	97%/ 97%
C=CC(=O)N1CCN(c2nc(OC[C@@H]3CCCN3C)nc3c2CN(Cc2cc(OC)ccc2F)C3)C[C@@H]1CC#N [1-39]	51%	72%
C=CC(=O)N1CCN(c2nc(OC[C@@H]3CCCN3C)nc3c2CN(Cc2cc(O)ccc2C)C3)C[C@@H]1CC#N [1-40]	98%/ 98%	98%/ 98%
C=CC(=O)N1CCN(c2nc(OC[C@@H]3CCCN3C)nc3c2CN(Cc2cc(Cl)ccc2Cl)C3)[C@@H](C)C1 [1-41]	3%	22%
C=CC(=O)N1CCN(c2nc(OC[C@@H]3CCCN3C)nc3c2CN(C2CCc4ccccc42)C3)C[C@@H]1CC#N (stereo partly shown) [1-42]	84%	95%
C=CC(=O)N1CCN(c2nc(OC[C@@H]3CCCN3C)nc3c2CN(Cc2cc(O)ccc2Cl)C3)[C@@H](C)C1 [1-43]	97%	98%
C=CC(=O)N1CCN(c2nc(OC[C@@H]3CCCN3C)nc3c2CN(Cc2c(Cl)cccc2Cl)C3)C[C@@H]1CC#N [1-44]	98%	100%
C=CC(=O)N1CCN(c2nc(OC[C@@H]3CCCN3C)nc3c2CN(Cc2ccccc2C)C3)C[C@@H]1CC#N [1-45]	94%	98%
C=CC(=O)N1CCN(c2nc(OC[C@@H]3CCCN3C)nc3c2CN(Cc2cc(O)ccc2F)C3)C[C@@H]1CC#N [1-46]	98%	99%
C=CC(=O)N1CCN(c2nc(OC[C@@H]3CCCN3C)nc3c2CN(Cc2c(O)cccc2F)C3)[C@@H](C)C1 [1-47]	11%	43%
C=CC(=O)N1CCN(c2nc(OC[C@@H]3CCCN3C)nc3c2CN(c2cccc4cccc(C)c24)C3)C[C@@H]1CC(F)(F)F [1-48]	0%	1%
C=CC(=O)N1CCN(c2nc(OC[C@@H]3CCCN3C)nc3c2CN(Cc2cc(Cl)ccc2F)C3)C[C@@H]1CC#N [1-49]	81%	97%
C=CC(=O)N1CCN(c2nc(OC[C@@H]3CCCN3C)nc3c2CN(Cc2cc(O)ccc2F)C3)[C@@H](C)C1 [1-50]	53%	92%
C=CC(=O)N1CCN(c2nc(OC[C@@H]3CCCN3C)nc3c2CN(Cc2c(O)cccc2Cl)C3)C[C@@H]1CC#N [1-51]	98%/ 98%	98%/ 98%
C=CC(=O)N1CCN(c2nc(OC[C@@H]3CCCN3C)nc3c2CN(C2CCCc4ccccc42)C3)C[C@@H]1CC#N (stereo partly drawn) [1-52 (2nd isomer)]	76%	91%
C=CC(=O)N1CCN(c2nc(OC[C@@H]3CCCN3C)nc3c2CN(C2CCCc4ccccc42)C3)C[C@@H]1CC#N (stereo partly shown) [1-52]	6%	91%
C=CC(=O)N1CCN(c2nc(OC[C@@H]3CCCN3C)nc3c2CN(Cc2cc(OC(F)F)ccc2Cl)C3)C[C@@H]1CC#N [1-53]	40%	86%
C=CC(=O)N1CCN(c2nc(OC[C@@H]3CCCN3C)nc3c2CN(C(C)c2cc(O)ccc2C)C3)[C@@H](C)C1 (stereo partly shown) [1-54]	70%	77%
C=CC(=O)N1CCN(c2nc(OC[C@@H]3CCCN3C)nc3c2CN(Cc2c(C)cccc2O)C3)C[C@@H]1CC#N [1-55]	78%	91%
